Experiments:
[1] = test system: carrageenin oedema in rats; test: Antiphlogistic action against carrageenin oedema in rats; type: in vivo, rats (SIV 50); conditions: for inhibition of the paw volume: 3 hours after carrageenin; for antiphlogistic properties (in words): carrageenin oedema
Method: The experimental animals used were male rats (SIV 50), fasting for 20 hours, with a body weight of 110 to 160 g. Water was available ad libitum. After determination of the initial value of the paw volume of the right hind leg, the test substance was administered intragastrally as a suspension in 1% tragacanth slurry. 10 animals were used per dosage group. The volume administered was 20 ml./kg. body weight. The paw volume was measured by means of mercury displacement. 60 minutes after intragastral administration of the test substances, 0.1 ml. of a 1% carrageenin solution was injected subplantarily into the right hind paw. 1 and 3 hours after injection of the carrageenin, the paw volume of the oedematous paw was measured. The increase of the paw volume of the test substance-treated animals after 3 hours was compared with that of the control animals and the inhibition of the paw oedema by the test substance was calculated therefrom as a percentage.

[2] = Acute toxicity on mice (LD50, 7 day observation); conditions: mouse, in vivo, po; male NMRI mice, intragastral, 7 day observation
Method: (§1) The determination of the acute toxicity was carried out on male mice (NMRI) with a body weight of from 18 to 23 g. All the experimental animals fasted for 20 hours before commencement of the experiment. Water was available ad libitum. Each dosage grouping contained 4 animals. The dosage sequence was logarithmic. The test compounds were administered intragastrally as suspensions in 1% tragacanth slurry. The volume administered was 20 ml./kg. body weight.
(§2) The following Table gives the LD50 values after a 7 day observation period of the animals: […]

[3] = test system: stomach ulcers in rats induced by indomethacin; test: Ulcer-protective action on stomach ulcers in rats induced by indomethacin; type: in vivo, rats (SIV 50); conditions: with 40 mg/kg indomethacin, 5 hours
Method: The experimental animals used were male rats (SIV 50), fasted for 20 hours, with a body weight of 170 to 220 g. Water was available ad libitum. The animals were simultaneously given intragastrally 40 mg./kg. indomethacin and the test substance in the form of a suspension in 0.8% "Methocel". The control animals only received the corresponding dosage of indomethacin. 10 animals were used for each experimental group. The volume administered was 10 ml./kg. body weight. 5 hours after administration, the animals were sacrificed. After removal of the stomach and opening along the curvatura major, this was investigated with a stereomagnifier for the presence of ulcers. […] The ulcer index of the animals treated with indomethacin and test substance was compared with that of the control animals which had only been treated with indomethacin and the ulcer inhibition calculated therefrom as a percentage.

male mice (NMRI) = test: Acute toxicity on mice (LD50, 7 day observation); conditions: mouse, in vivo
Method: as §1, §2

[4] = test system: gastric juice secretion in rats; test: Influence on gastric juice secretion in rats (Shay, pyloric ligature); type: in vivo, rats (SIV 50); conditions: 4 hours after pyloric ligature
Method: According to the method described by H. Shay et al. (Gastroenterology, 5, 43-61/1945), male rats (SIV 50) with a body weight of 160 to 200 g. were fasted for 48 hours before commencement of the experiment. Water was available to the animals ad libitum. The test substances were administered intragastrally as a suspension in 1% tragacanth slurry. The volume administered was 10 ml./kg. body weight. 8 animals were used per experimental group. One hour after administration of the substance, a pyloric ligature was applied under light ether narcosis. 4 hours after this intervention, the animals were sacrificed. The extirpated stomach was opened up along the curvatura major and the volume of the secretion was measured and compared with the data obtained from the control group.

Compound: N#CC1=C(SCCN2CCOCC2)NC(=O)C1(c1ccccc1)c1cccs1 (stereo not drawn) [Example 6c, 2-(2-morpholinoethylthio)-5-oxo-4-phenyl-4-(2-thienyl)-2-pyrroline-3-carbonitrile]
- inhibition of the paw volume ([1]; 125 mg/kg intragastrally): 6%
- inhibition of the paw volume ([1]; 250 mg/kg intragastrally): 45%
- LD50 at 168 h [2]: > 1600 mg/kg

Compound: CSC1=C(C#N)C(c2ccc(N(C)C)cc2)(c2cccnc2)C(=O)N1 (stereo not drawn) [Example 4i, 4-(4-dimethylaminophenyl)-2-methylthio-5-oxo-4-(3-pyridyl)-2-pyrroline-3-carbonitrile]
- ulcer inhibition ([3]; 50 mg/kg intragastral): 88%
- compatibility (in words) (male mice (NMRI)): good compatibility
- LD50 at 168 h [2]: > 1600 mg/kg

Compound: CCN(CC)CCSC1=C(C#N)C(c2ccc(N(C)C)cc2)(c2cccnc2)C(=O)N1 (stereo not drawn) [Example 4a, 2-(2-diethylaminoethylthio)-4-(4-dimethylaminophenyl)-5-oxo-4-(3-pyridyl)-2-pyrrolin-3-carbonitril]
- inhibition of gastric juice secretion ([4]; 62.5 mg/kg intragastral): 45%
- inhibition of gastric juice secretion ([4]; 125 mg/kg intragastral): 64%
- inhibition of gastric juice secretion ([4]; 250 mg/kg intragastral): 73%
- ulcer inhibition ([3]; 125 mg/kg intragastral): 84%
- inhibition of the paw volume ([1]; 50 mg/kg intragastrally): 59%
- inhibition of the paw volume ([1]; 100 mg/kg intragastrally): 77%
- antiphlogistic properties (in words) [1]: most effective compounds
- LD50 at 168 h [2]: 800 mg/kg

Compound: CCN(CC)CCCSC1=C(C#N)C(c2ccc(N(C)C)cc2)(c2cccnc2)C(=O)N1 (stereo not drawn) [Example 4k, 2-(3-diethylaminopropylthio)-4-(4-dimethylaminophenyl)-5-oxo-4-(3-pyridyl)-2-pyrroline-3-carbonitrile]
- ulcer inhibition ([3]; 50 mg/kg intragastral): 33%
- ulcer inhibition ([3]; 100 mg/kg intragastral): 94%
- LD50 at 168 h [2]: 300 mg/kg

Compound: CN(C)c1ccc(C2(c3cccnc3)C(=O)NC(SCCN3CCCC3)=C2C#N)cc1 (stereo not drawn) [Example 4e, 4-(4-dimethylaminophenyl)-2-(2-pyrrolidinoethylthio)-5-oxo-4-(3-pyridyl)-2-pyrroline-3-carbonitrile]
- inhibition of the paw volume ([1]; 25 mg/kg intragastrally): 37%
- inhibition of the paw volume ([1]; 50 mg/kg intragastrally): 70%
- antiphlogistic properties (in words) [1]: most effective compounds
- LD50 at 168 h [2]: > 1600 mg/kg

Compound: CN(C)c1ccc(C2(c3cccnc3)C(=O)NC(SCCN3CCOCC3)=C2C#N)cc1 (stereo not drawn) [Example 4b, 4-(4-dimethylaminophenyl)-2-(2-morpholinoethylthio)-5-oxo-4-(3-pyridyl)-2-pyrroline-3-carbonitrile]
- inhibition of gastric juice secretion ([4]; 50 mg/kg intragastral): 24%
- inhibition of gastric juice secretion ([4]; 100 mg/kg intragastral): 63%
- inhibition of gastric juice secretion ([4]; 200 mg/kg intragastral): 76%
- LD50 at 168 h [2]: 400 mg/kg

Compound: CN(C)CCSC1=C(C#N)C(c2ccc(N(C)C)cc2)(c2cccnc2)C(=O)N1 (stereo not drawn) [Example 4g, 2-(2-dimethylaminoethylthio)-4-(4-dimethylaminophenyl)-5-oxo-4-(3-pyridyl)-2-pyrroline-3-carbonitrile]
- inhibition of the paw volume ([1]; 50 mg/kg intragastrally): 25%
- inhibition of the paw volume ([1]; 100 mg/kg intragastrally): 61%
- LD50 at 168 h [2]: 1600 mg/kg

Compound: CN(C)c1ccc(C2(c3cccnc3)C(=O)NC(SCCN3CCCCC3)=C2C#N)cc1 (stereo not drawn) [Example 4d, 4-(4-dimethylaminophenyl)-2-(2-piperidinoethylthio)-5-oxo-4-(3-pyridyl)-2-pyrroline-3-carbonitrile]
- inhibition of gastric juice secretion ([4]; 125 mg/kg intragastral): 48%
- inhibition of gastric juice secretion ([4]; 250 mg/kg intragastral): 76%
- inhibition of the paw volume ([1]; 50 mg/kg intragastrally): 26%
- inhibition of the paw volume ([1]; 125 mg/kg intragastrally): 83%
- LD50 at 168 h [2]: 1600 mg/kg

Compound: N#CC1=C(SCCN2CCCC2)NC(=O)C1(c1ccccc1)c1cccs1 (stereo not drawn) [Example 6f, 5-oxo-4-phenyl-2-(2-pyrrolidinoethylthio)-4-(2-thienyl)-2-pyrroline-3-carbonitrile]
- inhibition of the paw volume ([1]; 125 mg/kg intragastrally): 24%
- inhibition of the paw volume ([1]; 250 mg/kg intragastrally): 45%
- LD50 at 168 h [2]: > 1600 mg/kg
